Where a name gives a salt, the structure may show the parent alone.
Target: Aurora A (Homo sapiens (Human), UniProt O14965)
Experiment: Aurora A inhibition assay (Z-Lyte)
Format: biochemical

Aurora A, sequence (O14965 whole entry): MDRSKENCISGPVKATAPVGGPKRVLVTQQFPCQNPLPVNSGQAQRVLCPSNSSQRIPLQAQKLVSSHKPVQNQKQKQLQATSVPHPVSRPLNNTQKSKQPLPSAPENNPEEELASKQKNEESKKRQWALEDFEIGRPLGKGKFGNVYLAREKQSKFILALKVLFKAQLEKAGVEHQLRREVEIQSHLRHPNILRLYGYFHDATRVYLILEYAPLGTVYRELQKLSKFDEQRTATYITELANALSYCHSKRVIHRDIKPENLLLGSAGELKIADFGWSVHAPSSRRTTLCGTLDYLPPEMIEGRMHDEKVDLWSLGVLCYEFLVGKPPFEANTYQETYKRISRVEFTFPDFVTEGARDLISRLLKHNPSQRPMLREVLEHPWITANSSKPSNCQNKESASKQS

Row | SMILES | inhibition at 1 µM [%] | IC50 [nM]
1 | COc1ccc2c(c1)[C@]1(C[C@H]1c1ccc3c(-c4cccc(N5CCNCC5)c4)n[nH]c3c1)C(=O)N2 (relative stereo) [Example A47, (1R*,2S*)-5′-methoxy-2-(3-(3-(piperazin-1-yl)phenyl)-1H-indazol-6-yl)spiro[cyclopropane-1,3′-indolin]-2′-one 2,2,2-trifluoroacetate] | < 50 | 
2 | CN(C)Cc1ccc(/C=C/c2n[nH]c3cc([C@@H]4C[C@@]45C(=O)N(C)c4ccccc45)ccc23)cc1 [Example A109, (1R,2S)-(E)-2-(3-(4-((dimethylamino)methyl)styryl)-1H-indazol-6-yl)-1′-methylspiro[cyclopropane-1,3′-indolin]-2′-one 2,2,2-trifluoroacetate] | > 50 | 
3 | COCCN1C(=O)[C@@]2(C[C@H]2c2ccc3c(/C=C/c4ccc(CN(C)C)cc4)n[nH]c3c2)c2ccccc21 [Example A131, (1R,2S)-(E)-2-(3-(4-((dimethylamino)methyl)styryl)-1H-indazol-6-yl)-1′-(2-methoxyethyl)spiro[cyclopropane-1,3′-indolin]-2′-one 2,2,2-trifluoroacetate] | > 50 | 
4 | O=C1Nc2ccccc2[C@]12C[C@H]2c1ccc2c(/C=C/c3ccc(CCN4CCOCC4)cc3)n[nH]c2c1 [Example A205, (1R,2S)-(E)-2-(3-(4-(2-morpholinoethyl)styryl)-1H-indazol-6-yl)spiro[cyclopropane-1,3′-indolin]-2′-one 2,2,2-trifluoroacetate] | > 50 | 
5 | COc1ccc2c(c1)[C@]1(C[C@H]1c1ccc3c(I)n[nH]c3c1)C(=O)N2 [Example A7, (1R,2S)-2-(3-iodo-1H-indazol-6-yl)-5′-methoxyspiro[cyclopropane-1,3′-indolin]-2′-one] | < 50 | 
6 | COc1ccc2c(c1)[C@]1(C[C@H]1c1ccc3c(-c4ccc(N5CCNCC5)cc4)n[nH]c3c1)C(=O)N2 (relative stereo) [Example A48, (1R*,2S*)-5′-methoxy-2-(3-(4-(piperazin-1-yl)phenyl)-1H-indazol-6-yl)spiro[cyclopropane-1,3′-indolin]-2′-one 2,2,2-trifluoroacetate] | < 50 | 
7 | Cc1ccc2c(c1)[C@]1(C[C@H]1c1ccc3c(/C=C/c4ccc(CN5CCOCC5)cc4)n[nH]c3c1)C(=O)N2 [Example A195, (1R,2S)-(E)-5′-methyl-2-(3-(4-(morpholinomethyl)styryl)-1H-indazol-6-yl)spiro[cyclopropane-1,3′-indolin]-2′-one 2,2,2-trifluoroacetate] | > 50 | 
8 | CN1C(=O)[C@@]2(C[C@H]2c2ccc3c(/C=C/c4ccc(CN5CCCC5)cc4)n[nH]c3c2)c2ccccc21 [Example A115, (1R,2S)-(E)-1′-methyl-2-(3-(4-(pyrrolidin-1-ylmethyl)styryl)-1H-indazol-6-yl)spiro[cyclopropane-1,3′-indolin]-2′-one 2,2,2-trifluoroacetate] | < 50 | 
9 | O=C1Nc2ccccc2[C@]12C[C@H]2c1ccc2c(/C=C/c3cccnc3)n[nH]c2c1 [Example A29, (1R,2S)-2-(3-((E)-2-(pyridin-3-yl)vinyl)-1H-indazol-6-yl)spiro[cyclopropane-1,3′-indolin]-2′-one] | > 50 | 
10 | COc1ccc2c(c1)[C@]1(C[C@H]1c1ccc3c(C#Cc4ccc(C=O)cc4)n[nH]c3c1)C(=O)N2 (relative stereo) [Example A137, 4-((6-((1R*,2S*)-5′-methoxy-2′-oxospiro[cyclopropane-1,3′-indoline]-2-yl)-1H-indazol-3-yl)ethynyl)benzaldehyde] | < 50 | 
11 | CN1CCN(c2ccc(-c3n[nH]c4cc([C@@H]5C[C@@]56C(=O)Nc5ccc(F)cc56)ccc34)cn2)CC1 (relative stereo) [Example A210, 1R*,2S*1-5′-fluoro-2-(3-(6-(4-methylpiperazine-1-yl)pyridine-3-yl)-1H-indazol-6-yl)-spiro[cyclopropane-1,3′-indolin]-2′-one] | > 50 | 
12 | COc1ccc2c(c1)[C@]1(C[C@H]1c1ccc3c(/C=C/c4cc(F)c(CN(C)C)c(F)c4)n[nH]c3c1)C(=O)N2 (relative stereo) [Example A215, (1R*,2S*)-(E)-2-(3-(4-((dimethylamino)methyl)-3,5-difluorostyryl)-1H-indazol-6-yl)-5′-methoxyspiro[cyclopropane-1,3′-indolin]-2′-one 2,2,2-trifluoro acetate] |  | < 100
13 | COc1ccc2c(c1)[C@]1(C[C@H]1c1ccc3c(/C=C/c4ccc(OC5CCN(C)CC5)cc4)n[nH]c3c1)C(=O)N2 [Example A79, (1R,2S)-(E)-5′-methoxy-2-(3-(4-(1-methylpiperidin-4-yloxy)styryl)-1H-indazol-6-yl)spiro[cyclopropane-1,3′-indolin]-2′-one 2,2,2-trifluoroacetate salt] | > 50 | 
14 | COc1ccc2c(c1)[C@@]1(C[C@@H]1c1ccc3c(-c4ccc(N5CCNCC5)cc4)n[nH]c3c1)C(=O)N2 [Example A50, (1S,2R)-5′-methoxy-2-(3-(4-(piperazin-1-yl)phenyl)-1H-indazol-6-yl)spiro[cyclopropane-1,3′-indolin]-2′-one 2,2,2-trifluoroacetate] | < 50 | 
15 | Cc1ccc2c(c1)[C@]1(C[C@H]1c1ccc3c(/C=C/c4ccc(CN(C)C)cc4)n[nH]c3c1)C(=O)N2 (relative stereo) [Example A169, (1R*,2S*)-(E)-2-(3-(4-((dimethylamino)methyl)styryl)-1H-indazol-6-yl)-5′-methylspiro[cyclopropane-1,3′-indolin]-2′-one 2,2,2-trifluoroacetate] | > 50 | 
16 | COc1ccc2c(c1)[C@]1(C[C@H]1c1ccc3c(-c4ccc(N5CCC(N(C)C)CC5)cc4)n[nH]c3c1)C(=O)N2 [Example A120, (1R,2S)-2-(3-(4-(4-(dimethylamino)piperidin-1-yl)phenyl)-1H-indazol-6-yl)-5′-methoxyspiro[cyclopropane-1,3′-indolin]-2′-one 2,2,2-trifluoroacetate] | < 50 | 

More lines, now with the values ahead:

Row | inhibition at 1 µM [%] | IC50 [nM] | SMILES
17 | > 50 |  | COc1ccc2c(c1)[C@]1(C[C@H]1c1ccc3c(/C=C/c4ccc(CN5CCOCC5)cc4)n[nH]c3c1)C(=O)N2C [Example A102, (1R,2S)-(E)-5′-methoxy-1′-methyl-2-(3-(4-(morpholinomethyl)styryl)-1H-indazol-6-yl)spiro[cyclopropane-1,3′-indolin]-2′-one hydrochloride]
18 | < 50 |  | COc1ccc2c(c1)[C@]1(C[C@H]1c1ccc3c(-c4ccc(N5CCOCC5)nc4)n[nH]c3c1)C(=O)N2 (relative stereo) [Example A20, (1R*,2S*)*-5′-Methoxy-2-(3-(6-morpholinopyridin-3-yl)-1H-indazol-6-yl)spiro[cyclopropane-1,3′-indolin]-2′-one]
19 | > 50 |  | COc1ccc2c(c1)[C@]1(C[C@H]1c1ccc3c(/C=C/c4ccc(N5CCNCC5)cc4)n[nH]c3c1)C(=O)N2 (relative stereo) [Example A182, (1R*,2S*)-5′-methoxy-2-(3-(4-(piperazin-1-yl)styryl)-1H-indazol-6-yl)spiro[cyclopropane-1,3′-indolin]-2′-one 2,2,2-trifluoroacetate]
20 | > 50 |  | COc1ccc2c(c1)[C@]1(C[C@H]1c1ccc3c(/C=C/c4csc(CN5CCOCC5)c4)n[nH]c3c1)C(=O)N2 (relative stereo) [Example A184, (1R*,2S*)-5′-methoxy-2-(3-((E)-2-(5-(morpholinomethyl)thiophen-3-yl)vinyl)-1H-indazol-6-yl)spiro[cyclopropane-1,3′-indolin]-2′-one 2,2,2-trifluoroacetate]
21 | < 50 |  | COc1ccc2c(c1)[C@]1(C[C@H]1c1ccc3c(-c4ccc(CN5CCN(C)CC5)cc4)n[nH]c3c1)C(=O)N2 (relative stereo) [Example A140, (1R*,2S*)-5′-methoxy-2-(3-(4-((4-methylpiperazin-1-yl)methyl)phenyl)-1H-indazol-6-yl)spiro[cyclopropane-1,3′-indolin]-2′-one bis-2,2,2-trifluoroacetate]
22 | > 50 |  | O=C1Nc2ccccc2[C@]12C[C@H]2c1ccc2c(/C=C/c3ccc(CN4CCOCC4)c(F)c3)n[nH]c2c1 [Example A200, (1R,2S)-(E)-2-(3-(3-fluoro-4-(morpholinomethyl)styryl)-1H-indazol-6-yl)spiro[cyclopropane-1,3′-indolin]-2′-one 2,2,2-trifluoroacetate]
23 | > 50 |  | COc1ccc2c(c1)[C@]1(C[C@H]1c1ccc3c(/C=C/c4ccc5c(c4)CNCC5)n[nH]c3c1)C(=O)N2 [Example A66, (1R,2S)-5′-methoxy-2-(3-((E)-2-(1,2,3,4-tetrahydroisoquinolin-7-yl)vinyl)-1H-indazol-6-yl)spiro[cyclopropane-1,3′-indolin]-2′-one 2,2,2-trifluoroacetate salt]
24 | < 50 |  | COc1ccc2c(c1)[C@@]1(C[C@@H]1c1ccc3c(-c4ccc(N5CCN(C)CC5)nc4)n[nH]c3c1)C(=O)N2 [Example A15, (1S,2R)-5′-methoxy-2-(3-(6-(4-methylpiperazin-1-yl)pyridin-3-yl)-1H-indazol-6-yl)spiro[cyclopropane-1,3′-indolin]-2′-one]
25 | > 50 |  | CCN(CC)Cc1ccc(/C=C/c2n[nH]c3cc([C@@H]4C[C@@]45C(=O)Nc4ccc(OC)cc45)ccc23)cc1 [Example A206, (1R,2S)-(E)-2-(3-(4-((diethylamino)methyl)styryl)-1H-indazol-6-yl)-5′-methoxy spiro[cyclopropane-1,3′-indolin]-2′-one 2,2,2-trifluoroacetate]
26 | < 50 |  | CN1CCN(c2ccc(-c3n[nH]c4cc([C@@H]5C[C@@]56C(=O)Nc5ccc(Br)cc56)ccc34)cn2)CC1 (relative stereo) [Example A19, (1R*,2S*)-5′-bromo-2-(3-(6-(4-methylpiperazin-1-yl)pyridin-3-yl)-1H-indazol-6-yl)spiro[cyclopropane-1,3′-indolin]-2′-one]
27 | > 50 |  | CN1CCC(Cc2ccc(/C=C/c3n[nH]c4cc([C@@H]5C[C@@]56C(=O)Nc5ccccc56)ccc34)cc2)CC1 [Example A81, (1R,2S)-(E)-2-(3-(4-((l-methylpiperidin-4-yl)methyl)styryl)-1H-indazol-6-yl)spiro[cyclopropane-1,3′-indolin]-2′-one 2,2,2-trifluoroacetate salt]

From US10358436B2, “Kinase inhibitors and method of treating cancer” (University Health Network, priority 2010, dated 2019)
